Read-outs that look alike come from different tables or passages of the source.
Tests used:
full-length human PARP1 = target: T1, full-length human PARP1 (Homo sapiens, UniProt P09874); test: PARP1 enzymatic assay (homogeneous NAD+ consumption assay); type: biochemical; details: 5 nM PARP1, 500 nM NAD+, 30 min
T1 construct: Briefly, full‐length human PARP1 was produced in E. coli Rosetta2 (DE3); made in house; host or cells: E. coli Rosetta2 (DE3)
Description: PARP1 was expressed and purified as described in the literature. Briefly, full‐length human PARP1 was produced in E. coli Rosetta2 (DE3). The cells were harvested by centrifugation, and re‐suspended in lysis buffer containing 50 mM HEPES pH 8.0, 500 mM NaCl, 10 % glycerol, 0.5 mM TCEP and 10 mM imidazole. The sample was lysed using sonication in the presence of DNAse1 and 3‐aminobenzamide, centrifuged at 18,000 rpm for 1 h and the supernatant was filtered. The clarified sample was loaded to a HiTrap^TM IMAC column (Cytiva), washed with lysis buffer, then with a similar buffer containing 1 M NaCl, and finally with lysis buffer containing 25 mM imidazole before eluting the protein with 500 mM imidazole. The eluted sample was then diluted to reduce NaCl concentration to 250 mM, and loaded to a HiTrap Heparin column (Cytiva). The column was washed with 50 mM HEPES, 250 mM NaCl, 10 % glycerol, 1 mM EDTA, 0.1 mM TCEP, pH 7.5. and the sample was eluted using a gradient with a similar buffer containing 1 M NaCl. Fractions were analyzed by SDS‐PAGE and those containing protein were pooled and concentrated before aliquoting and stored at −70 °C.
IC50 was determined using homogeneous NAD^+ consumption assay. 5 nM PARP1 was incubated with each compound in log half dilution series for 30 min in 50 mM Tris pH 8.0, 5 mM MgCl2, 0.2 mg mL^−1 BSA, 10 μg mL^−1 activated DNA and 500 nM NAD^+. The reactions were performed in quadruplicates and resulting IC50 curves were fitted to a sigmoidal dose‐response curve (four variables) using GraphPad Prism version 8.02. Each experiment was repeated three times from which pIC50±SEM was calculated. Compounds with IC50 above 1 μM were measured only once.

[1] = PAMPA BBB permeability (brain polar lipid coated filter); type: in vitro ADME; details: for MR (membrane retention): pH 7.4, 5 h; for Papp at 5 h, 500 μM: PAMPA
Description: The donor solution (150 μL) was then added to each well of the filter plate. 300 μL of the solution (50 % DMSO in phosphate buffer) were added to each well of the acceptor plate. The sandwich plate was assembled and incubated for 5 h at room temperature. After the incubation time, plates were separated, samples were taken from both the donor and acceptor wells, and the compound concentration was measured by UV/LC–MS. All compounds were tested in three independent experiments. […] (3) Papp=VD×VA/VD+VAAt-ln(1-r)
Equation (3): Experimental apparent permeability (Papp) calculation as described in the literature modified to yield values in cm s^−1 [67, 68]. […] Drug concentration is estimated by using the peak area integration. (4) %MR=[r-D+A]/Eq×100
Equation (4): Membrane retention calculation: r is the ratio between drug concentration in the acceptor and equilibrium solutions. D, A, and Eq represent the drug concentration in the donor, acceptor, and equilibrium solutions, respectively.

[2] = pH 7.4, pH 7.4, donor 500 μM, 5 h, room temperature, read-out: PAMPA BBB Papp

T1 sequence (P09874 whole entry): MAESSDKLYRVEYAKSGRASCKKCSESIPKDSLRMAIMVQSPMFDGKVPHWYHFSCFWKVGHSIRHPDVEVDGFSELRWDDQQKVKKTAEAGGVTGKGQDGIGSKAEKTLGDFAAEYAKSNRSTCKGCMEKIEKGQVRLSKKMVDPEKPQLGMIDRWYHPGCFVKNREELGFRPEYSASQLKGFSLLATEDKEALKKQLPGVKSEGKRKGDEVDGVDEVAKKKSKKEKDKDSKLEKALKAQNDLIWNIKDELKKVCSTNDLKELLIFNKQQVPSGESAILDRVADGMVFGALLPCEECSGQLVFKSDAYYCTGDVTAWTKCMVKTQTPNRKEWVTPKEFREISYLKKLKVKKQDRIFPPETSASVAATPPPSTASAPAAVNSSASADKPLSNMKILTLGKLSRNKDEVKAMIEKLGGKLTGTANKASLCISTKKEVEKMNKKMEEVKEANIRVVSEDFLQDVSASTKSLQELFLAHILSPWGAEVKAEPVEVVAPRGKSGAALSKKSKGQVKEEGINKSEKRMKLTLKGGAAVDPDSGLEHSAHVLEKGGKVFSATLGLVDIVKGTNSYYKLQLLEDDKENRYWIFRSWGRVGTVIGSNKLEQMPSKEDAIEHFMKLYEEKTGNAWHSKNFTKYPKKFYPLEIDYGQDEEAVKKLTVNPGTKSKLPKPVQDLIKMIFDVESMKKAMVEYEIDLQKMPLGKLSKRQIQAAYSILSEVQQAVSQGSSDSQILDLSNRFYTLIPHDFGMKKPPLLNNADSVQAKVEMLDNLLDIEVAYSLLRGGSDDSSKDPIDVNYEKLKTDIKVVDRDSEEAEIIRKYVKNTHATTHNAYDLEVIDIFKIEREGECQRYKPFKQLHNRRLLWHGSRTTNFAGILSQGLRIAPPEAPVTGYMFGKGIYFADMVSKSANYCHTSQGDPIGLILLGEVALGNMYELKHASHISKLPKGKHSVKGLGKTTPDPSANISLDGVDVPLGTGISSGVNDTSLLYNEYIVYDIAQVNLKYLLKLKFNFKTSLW

Row | Compound | IC50 (result in words) (full-length human PARP1) | IC50 (full-length human PARP1; averaged on three replicas) [nM] | MR (membrane retention) ([1]; PAMPA BBB) [%] | further results
1 | O=c1[nH]nc(-c2ccc(Br)cc2)c2ccccc12 [Row86 (I), 4‐(4‐bromophenyl)‐2H‐phthalazin‐1‐one] | sub‐micromolar | 395 | – | –
2 | Cc1ccc(Cn2cc(CCN)c3c(C#N)cccc32)cc1 [Row847, 3‐(2‐Aminoethyl)‐1‐[(4‐methylphenyl)methyl]‐1H‐indole‐4‐carbonitrile] | – | – | – | IC50 (full-length human PARP1; IC50 above 1 μM measured once): 16000 nM
3 | CC1CC1C(=O)c1ccc(-c2n[nH]c(=O)c3ccccc23)cc1 (stereo not drawn) [Row745(2), 4‐[4‐(2‐Methylcyclopropanecarbonyl)phenyl]‐1,2‐dihydrophthalazin‐1‐one] | sub‐micromolar | 908 | 3.6 | Papp at 5 h, 500 μM ([1]; pH 7.4, PAMPA BBB, read-out: BBB permeability (diffusion)): 2.1 ×10⁻⁶ cm/s; Papp at 5 h, 500 μM [1, 2]: 2.1 ×10⁻⁶ cm/s
4 | C#CCCNCc1ccc(-c2cc(F)c3c(c2)C(=O)NCC3)c(C)c1 [Row528, 7‐(4‐{[(But‐3‐yn‐1‐yl)amino]methyl}‐2‐methylphenyl)‐5‐fluoro‐1,2,3,4‐tetrahydroisoquinolin‐1‐one] | No inhibition | – | – | –
5 | Cc1cc(CN)ccc1-c1cc(F)c2c(c1)C(=O)NCC2.Cl [Row528 (I), 7‐[4‐(Aminomethyl)‐2‐methylphenyl]‐5‐fluoro‐1,2,3,4‐tetrahydroisoquinolin‐1‐one hydrochloride] | No inhibition | – | – | –
6 | Cc1cc(COC(=O)c2c(C)ccc3[nH]ncc23)ccc1C(=O)N1CCOCC1 [Row26, [3‐Methyl‐4‐(morpholine‐4‐carbonyl)phenyl]methyl 5‐methyl‐1H‐indazole‐4‐carboxylate] | No inhibition | – | – | –
7 | Cc1cc2cc(C(=O)OCc3ccc(C(=O)N4CCOCC4)c(C)c3)ccc2c(=O)[nH]1 [Row514, [3‐Methyl‐4‐(morpholine‐4‐carbonyl)phenyl]methyl 3‐methyl‐1‐oxo‐1,2‐dihydroisoquinoline‐6‐carboxylate] | – | – | 0.8 | IC50 (full-length human PARP1; IC50 above 1 μM measured once): 19000 nM; BBB permeability relative to reference Olaparib ([1]; PAMPA BBB, ratio of Papp): approximately 20 times; Papp at 5 h, 500 μM [1, 2]: 0.325 ×10⁻⁶ cm/s
8 | O=C(c1cc(Cc2n[nH]c(=O)c3ccccc23)ccc1F)N1CCN(C(=O)C2CC2)CC1 [Olaparib, reference compound] | – | – | 3.0 | –
9 | CCCC(O)c1ccc(-c2n[nH]c(=O)c3ccccc23)cc1 (stereo not drawn) [Row86, 4‐[4‐(1‐Hydroxybutyl)phenyl]‐1,2‐dihydrophthalazin‐1‐one] | sub‐micromolar | 755 | – | –
